Target: T1, Monocarboxylate transporter 1 (MCT1) (Mus musculus, UniProt P53986)
T1 sequence (P53986 1-493): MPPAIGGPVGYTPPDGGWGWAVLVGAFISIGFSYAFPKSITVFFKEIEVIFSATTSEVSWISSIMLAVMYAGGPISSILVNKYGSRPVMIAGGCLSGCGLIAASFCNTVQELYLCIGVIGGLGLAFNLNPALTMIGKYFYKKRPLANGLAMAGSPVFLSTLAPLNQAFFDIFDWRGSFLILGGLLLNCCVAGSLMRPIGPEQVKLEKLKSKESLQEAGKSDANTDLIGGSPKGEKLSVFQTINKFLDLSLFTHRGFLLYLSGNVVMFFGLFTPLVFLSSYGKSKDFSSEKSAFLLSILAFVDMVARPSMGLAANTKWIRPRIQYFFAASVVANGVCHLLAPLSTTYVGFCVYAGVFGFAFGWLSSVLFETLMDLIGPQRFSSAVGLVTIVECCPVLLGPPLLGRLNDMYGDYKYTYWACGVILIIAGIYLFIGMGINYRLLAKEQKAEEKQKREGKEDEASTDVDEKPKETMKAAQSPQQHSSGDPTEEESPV
T1 sequence (P18572 22-389 partner): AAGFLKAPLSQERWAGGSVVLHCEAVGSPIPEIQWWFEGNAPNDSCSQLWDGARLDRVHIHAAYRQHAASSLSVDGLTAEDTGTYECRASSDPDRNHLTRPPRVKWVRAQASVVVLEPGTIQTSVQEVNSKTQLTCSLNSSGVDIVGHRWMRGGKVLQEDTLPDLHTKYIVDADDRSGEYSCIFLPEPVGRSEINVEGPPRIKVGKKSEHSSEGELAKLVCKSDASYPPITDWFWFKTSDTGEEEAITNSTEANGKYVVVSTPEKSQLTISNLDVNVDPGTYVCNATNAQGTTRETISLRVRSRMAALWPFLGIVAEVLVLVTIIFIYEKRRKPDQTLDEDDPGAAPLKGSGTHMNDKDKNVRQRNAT
Test: inhibition of radiolabeled L-lactate uptake in 4T1 cells
Format: cell-based

SMILES | IC50
N#C/C(=C\c1ccc(O)cc1)C(=O)O [CHC, α-cyano-4-hydroxycinnamic acid] | 7.57 ± 15.2 mM
Cc1[nH]nc(C(F)(F)F)c1Cc1sc2c(c1C(=O)N1C[C@](C)(O)CO1)c(=O)n(C)c(=O)n2C(C)C [AZD3965] | 1.7e-05 ± 3.6e-06 mM

Reference: PMC8066402 (The AAPS journal, 2020)
